From publication PMC7083851, “Extended pharmacodynamic responses observed upon PROTAC-mediated degradation of RIPK2” (Communications Biology, 2020)
Values joined by “and” are separate entries in the source; they are usually repeats but may differ in a detail not shown here. Equal entries are not always repeated. Where two headings read alike, the source gives them in different places.

What was measured:
Hepatocyte CLint, rat = type: in vitro ADME; conditions: rat liver hepatocytes
Procedure: (§1) Metabolic stability was performed at Cyprotex (UK). Pooled liver microsomes / cryopreserved pooled hepatocytes were purchased from a commercial supplier (BD Biosciences or Corning/InVitro Technologies).
(§2) The final incubation volume was 500 µL. An appropriate vehicle control was used. Each compound was incubated for 0, 5, 10, 20, 40, and 60 min. The control (vehicle) was incubated for 60 min.
(§3) All incubations were terminated by transferring 50 μL of incubate to 100 μL of acetonitrile containing internal standard at the appropriate time points. The termination plates were centrifuged at 2500 rpm for 20–30min at 4 °C to precipitate the protein. Following protein precipitation, samples were analysed using quantitative LC-MS/MS.

RIPK2 [1] = molecular target: T1, RIPK2 (Homo sapiens, UniProt O43353); test: RIPK2 fluorescence polarisation binding assay
T1 sequence (O43353 whole entry): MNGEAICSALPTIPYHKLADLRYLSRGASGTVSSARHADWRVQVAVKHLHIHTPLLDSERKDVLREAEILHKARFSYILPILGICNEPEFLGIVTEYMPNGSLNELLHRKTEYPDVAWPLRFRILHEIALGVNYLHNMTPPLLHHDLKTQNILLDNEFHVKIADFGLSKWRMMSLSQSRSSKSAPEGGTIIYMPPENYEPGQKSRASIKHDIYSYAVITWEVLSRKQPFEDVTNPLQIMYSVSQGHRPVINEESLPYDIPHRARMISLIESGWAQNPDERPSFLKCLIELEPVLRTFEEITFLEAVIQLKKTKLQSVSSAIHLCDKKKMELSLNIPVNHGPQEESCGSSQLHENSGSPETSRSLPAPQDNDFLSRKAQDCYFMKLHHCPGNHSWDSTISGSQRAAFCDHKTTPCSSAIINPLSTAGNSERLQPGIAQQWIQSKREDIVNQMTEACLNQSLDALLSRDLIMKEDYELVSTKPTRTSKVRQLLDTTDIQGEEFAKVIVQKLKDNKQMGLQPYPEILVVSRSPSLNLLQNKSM

Hepatocyte CLint, human = type: in vitro ADME; conditions: human liver hepatocytes
Procedure: as §1, §2, §3

RIPK2 [2] = molecular target: T1, RIPK2; test: RIPK2 degradation in human PBMCs (immunoassay); type: cell-based; parameters: endogenous in cells; host or cells: primary human PBMCs from leukodepletion filters (NHSBT); conditions: 24 h
Procedure: (§4) PBMCs were isolated from leukodepletion filter from platelet aphaeresis supplied by National Health System Blood and Transplant—NHSBT Apheresed at NHBST.
(§5) Before treatment with compound or vehicle, THP1 cells, human and rat PBMCs were counted using Vi-Cell cell counter (Invitrogen) and adjusted to a final cell density of […] using complete growth medium. Cells or whole blood were treated with vehicle (0.1% DMSO) or fixed concentrations of compound up to 1 μM in half log unit increments and incubated for the time period indicated in the figure.
(§6) Where the assessment of cytokines was performed, L18-MDP was added to the cell culture media (1 μg/ml) or to the rat blood samples (100 ng/ml) and samples were incubated for up to 4 h. […] Samples were them spun down at 1000 g and the cell culture supernatant, plasma or serum were collected for cytokines assessment, while cell pellets were used for RIPK2 and/or cIAP1, cIAP2, and XIAP levels analysis via immunoblotting.
Simple Western immunoassay: Cell lysates were mixed with 5× concentrated master mix (Protein Simple) and denatured at 95 °C on a heat block for 5 min together with the provided ladder (Protein Simple). Antibodies were diluted in the provided buffer as following: anti-RIPK2 (1:10 or 1:50), anti-cIAP1(1:10), anti-cIAP2 (1:10), anti-XIAP (1:10), mouse anti-β-actin (Abcam - 1:1000), rabbit anti-β-actin (Abcam - 1:50) and anti-vinculin (1:100). All reagents (blocking buffer, primary and secondary antibodies, streptavadin, luminol/peroxide, separation matrix, stacking matrix and water) were added to the Protein Simple plate containing the ladder and lysates and the plate was placed in a Protein Simple Western instrument and the Simple Western default size assay protocol was used. […] The area under the peak values obtained for RIPK2, cIAP1, cIAP2 or XIAP were normalized relative to the control protein values.
(§7) In vitro experimental data were analyzed using a 4-parameter logistic equation in GraphPad Prism 5.0.4. to generate an estimate of the half-maximal concentration and maximal degradation, DC50 and Dmax value respectively, for concentration-degradation relationships. Cytokine levels were analyzed in a similar manner to yield IC50 and Imax values. […] Where analysis to a sigmoidal relationship was not possible, the data points are shown as mean ± s.e.m.

[3] = system: L18-MDP-induced TNFα release; test: L18-MDP-induced cytokine release (TNFα, IL1β, IL-6, IL-8, IL-10) in human PBMCs; type: cell-based; conditions: for IC50: Homo sapiens, PBMC
Procedure: as §4, §5, §6
(§8) Cytokine measurement assay: Cytokine levels were measured in rat plasma or rat PBMCs cell culture supernatants using rat V-Plex TNFα, in human plasma or human PBMCs cell culture supernatants with either TNFα tissue culture or 7-plex kit. Rat serum and tissues samples from the in vivo L18-MDP acute inflammation model were analyzed using the rat TNFα, Il-6 and IL-8 U-Plex kits. All kits provided by Meso Scale Discovery (MSD). Levels of cytokines spontaneously released from human colon biopsies cell culture supernatants were measured using Human IL-1 beta/IL-1F2 DuoSet ELISA (Bio-techne), Human IL-6 ELISA (Immunotools) and Human TNF-alpha DuoSet ELISA (Bio-techne). All samples were processed accordingly to the manufacturer’s instructions. The MSD plates were analyzed using the MSD sector imager 6000 plate reader and cytokines concentration (pg/ml) was obtained by using the MSD DISCOVERY WORKBENCH software version 4.0.12.1
as §7

[4] = system: spontaneous IL-1β, IL-6, and TNFα release; test: Spontaneous cytokine release (IL-1β, IL-6, TNFα) from ulcerative colitis patient intestinal biopsies; type: cell-based, human; conditions: for IL-1b (Ctrl=DMSO = 100) / IL-6 (Ctrl=DMSO = 100) / TNFa (Ctrl=DMSO = 100): individual biopsies, fig 4f
Procedure: Colonic biopsies or tissues were obtained during endoscopy or via surgical resection from Crohn’s Disease (CD) or Ulcerative Colitis (UC) patients (St Bartholomew’s Hospital, London). All patients gave informed written consent. For surgical specimens, the mucosa was dissected away from the submucosa and cut into pieces of ~10–20 mg. […] The supernatants were collected for cytokine measurement as detailed in cytokines assay section while tissues were used to determine RIPK2 levels.
as §8

[5] = system: L18-MDP-induced cytokine release; test: In vivo L18-MDP acute inflammation model, distal colon cytokines; parameters: species or system rat; key to cytokine level (fig 6g) / cytokine level (fig 6h) / cytokine level (fig 6i): cytokine concentration in pg/ml (MSD U-Plex); conditions: for cytokine level (fig 6g) / cytokine level (fig 6i) / cytokine level (fig 6h): distal colon, individual rats, beside L18-MDP control
Procedure: Cytokine levels were determined in serum generated from the terminal blood samples and in tissue lysates as detailed below.
as §8

Caspases 3 and 7 = test: Caspase 3/7 activation in human PBMCs (Caspase-Glo 3/7), 24 h

CN[C@@H](C)C(=O)N[C@H](C(=O)N1CCC[C@H]1c1nc(C(=O)c2ccc(F)cc2)cs1)C1CCN(C(=O)c2cnc(N3CCN(CCOc4cc5ncnc(Nc6n[nH]c(C)c6C)c5cc4S(=O)(=O)C(C)(C)C)CC3)nc2)CC1 [PROTAC 4]
clearance in hepatocytes (Hepatocyte CLint, rat): < 0.80 mL/min/g liver
RIPK2 FP pIC50 ± SEM (n) (RIPK2 [1]): 6.6 ± 0.02 (8)
clearance in hepatocytes (Hepatocyte CLint, human): < 0.45 mL/min/g liver
hPBMC pDC50 ± SEM, 24 h (n = 3) (RIPK2 [2]; RIPK2 degradation): 7.9 ± 0.2
hPBMC Dmax ± SEM, 24 h (n = 3) (RIPK2 [2]; maximal RIPK2 degradation): 69.2 ± 11.5%
hPBMC MDP pIC50 ± SEM, 6 h (n = 3) ([3]; L18-MDP-induced TNFα release, human PBMCs, 6 h): 8.0 ± 0.5

CN[C@@H](C)C(=O)N[C@H](C(=O)N1C[C@@H](NC(=O)c2cnc(N3CCN(CCCOc4cc5ncnc(Nc6n[nH]c(C)c6C)c5cc4S(=O)(=O)C(C)(C)C)CC3)cn2)C[C@H]1C(=O)Nc1c(F)cccc1F)C(C)(C)C [PROTAC 6]
IC50 ([4]; Homo sapiens, 24 h, read-out: IC50 inhibition of spontaneous cytokine release): 1 to 3 nM
IL-1b (Ctrl=DMSO = 100) ([4]; compound concentration 0.05 nM): 133 and 73 and 55
IL-6 (Ctrl=DMSO = 100) ([4]; compound concentration 0.05 nM): 93 and 184 and 79 and 87 and 89 and 91
TNFa (Ctrl=DMSO = 100) ([4]; compound concentration 0.05 nM): 89 and 94 (2×) and 80 and 99
IL-1b (Ctrl=DMSO = 100) ([4]; compound concentration 0.5 nM): 74 and 22 and 52 and 46
IL-6 (Ctrl=DMSO = 100) ([4]; compound concentration 0.5 nM): 92 and 83 and 67 and 77 and 80 and 11 and 42
TNFa (Ctrl=DMSO = 100) ([4]; compound concentration 0.5 nM): 130 and 71 and 83 and 70 and 41 and 86
IL-1b (Ctrl=DMSO = 100) ([4]; compound concentration 5 nM): 49 and 88 and 62 (2×) and 28 and 58 and 77 and 41 and 55 and 30 and 27 (2×) and 11 and 37 and 67 and 54 and 44 and 40 and 39
IL-6 (Ctrl=DMSO = 100) ([4]; compound concentration 5 nM): 56 and 59 and 11 and 74 and 96 and 85 and 64 and 76 (2×) and 88 and 71 and 79 and 77 and 55 and 44 and 53 and 86 and 25 and 29
TNFa (Ctrl=DMSO = 100) ([4]; compound concentration 5 nM): 36 and 47 and 58 and 65 and 88 and 75 and 56 and 78 and 49 and 67 (2×) and 48 and 31 and 86 and 41 and 66 and 57
IL-1b (Ctrl=DMSO = 100) ([4]; compound concentration 50 nM): 38 and 22 and 12 (2×) and 95 and 26 and 24 and 43 and 15 and 68 and 21 and 1 and 23 and 39 and 18 and 7 and 11 and 34
IL-6 (Ctrl=DMSO = 100) ([4]; compound concentration 50 nM): 60 and 39 and 68 and 67 and 21 (2×) and 10 and 19 and 76 and 22 and 48 (2×) and 75 and 36 and 35 and 62 and 11 and 24
TNFa (Ctrl=DMSO = 100) ([4]; compound concentration 50 nM): 28 and 33 (2×) and 29 (2×) and 4 and 49 and 47 and 53 and 35 and 57 (2×) and 60 and 15 and 56 and 46 and 19 and 25 and 65
cytokine level (fig 6g) ([5]; time 6 h): 8.69 and 8.02 and 5.35 and 6.46 and 7.8
cytokine level (fig 6i) ([5]; time 6 h): 31.46 and 23.18 and 30.08 and 19.04 and 32.01
cytokine level (fig 6h) ([5]; time 6 h): 3.67 and 4.23 and 2.54 and 4.43 and 8.37
cytokine level (fig 6g) ([5]; time 24 h): 4.03 and 4.53 and 7.05 and 7.3
cytokine level (fig 6i) ([5]; time 24 h): 16.22 and 17.82 and 19.15 and 9.84 and 7.71
cytokine level (fig 6h) ([5]; time 24 h): 8.38 and 32.32 and 14.19
cytokine level (fig 6g) ([5]; time 72 h): 28.89 and 34.42 and 15.25 and 46.36 and 44.94
cytokine level (fig 6i) ([5]; time 72 h): 33.56 and 43.62 and 27.96 and 81.66 and 38.4
cytokine level (fig 6h) ([5]; time 72 h): 48.27 and 55.56 and 29.21 and 61.98 and 48.03
cytokine level (fig 6g) ([5]; time 240 h): 191.84 and 104.55 and 3.3 and 94.35
cytokine level (fig 6i) ([5]; time 240 h): 85.43 and 111.93 and 35.63 and 31.07
cytokine level (fig 6h) ([5]; time 240 h): 84.17 and 74.27 and 51.45 and 69.43
cytokine level (fig 6g) ([5]; time 408 h): 87.06 and 148.63 and 32.92 and 94.97 and 44.56
cytokine level (fig 6i) ([5]; time 408 h): 82.16 and 113.16 and 73.99 and 122.46 and 42.47
cytokine level (fig 6h) ([5]; time 408 h): 89.41 and 138.46 and 73.92 and 116.87 and 57.61
release of TNFα and IL-8 in distal colon, in words ([5]; rat, 0.3 mg/kg SC, intravenous L18-MDP challenge): significantly inhibited for up to six days post-dose
effect on caspases 3/7 activation, in words (Caspases 3 and 7): no
IC50 ([3]; 6 h, read-out: hPBMC MDP pIC50 ± SEM, 6 h (n = 3) (converted)): 0.501 nM
IC50 ([3]; read-out: pIC50 IL1β release following L18-MDP-stimulation (converted)): < 1.58 nM
IC50 ([3]; read-out: pIC50 IL-6 release following L18-MDP-stimulation (converted)): < 1.58 nM
IC50 ([3]; read-out: pIC50 IL-10 release following L18-MDP-stimulation (converted)): < 1.58 nM
IC50 ([3]; read-out: pIC50 TNFα release following L18-MDP-stimulation (converted)): < 1.58 nM
